Laboratory results taken from patent publication US11339157B1, “4H-pyrrolo[3,2-c]pyridin-4-one derivatives” (Bayer Aktiengesellschaft, priority 2017, dated 2022).
Values joined by “and” are separate entries in the source; they are usually repeats but may differ in a detail not shown here. Equal entries are not always repeated. Where two headings read alike, the source gives them in different places.

Columns and labels:
[1] = target: EGFR ins SVD (insertion of SVD between D770 and N771) (Homo sapiens, UniProt P00533, INS767SVD); assay: Exon 20-Mutant-EGFR(D770_N771insSVD) kinase assay (TR-FRET); format: biochemical
EGFR ins SVD (insertion of SVD between D770 and N771), sequence (P00533 with tags, fused parts or gaps INS767SVD limits assumed): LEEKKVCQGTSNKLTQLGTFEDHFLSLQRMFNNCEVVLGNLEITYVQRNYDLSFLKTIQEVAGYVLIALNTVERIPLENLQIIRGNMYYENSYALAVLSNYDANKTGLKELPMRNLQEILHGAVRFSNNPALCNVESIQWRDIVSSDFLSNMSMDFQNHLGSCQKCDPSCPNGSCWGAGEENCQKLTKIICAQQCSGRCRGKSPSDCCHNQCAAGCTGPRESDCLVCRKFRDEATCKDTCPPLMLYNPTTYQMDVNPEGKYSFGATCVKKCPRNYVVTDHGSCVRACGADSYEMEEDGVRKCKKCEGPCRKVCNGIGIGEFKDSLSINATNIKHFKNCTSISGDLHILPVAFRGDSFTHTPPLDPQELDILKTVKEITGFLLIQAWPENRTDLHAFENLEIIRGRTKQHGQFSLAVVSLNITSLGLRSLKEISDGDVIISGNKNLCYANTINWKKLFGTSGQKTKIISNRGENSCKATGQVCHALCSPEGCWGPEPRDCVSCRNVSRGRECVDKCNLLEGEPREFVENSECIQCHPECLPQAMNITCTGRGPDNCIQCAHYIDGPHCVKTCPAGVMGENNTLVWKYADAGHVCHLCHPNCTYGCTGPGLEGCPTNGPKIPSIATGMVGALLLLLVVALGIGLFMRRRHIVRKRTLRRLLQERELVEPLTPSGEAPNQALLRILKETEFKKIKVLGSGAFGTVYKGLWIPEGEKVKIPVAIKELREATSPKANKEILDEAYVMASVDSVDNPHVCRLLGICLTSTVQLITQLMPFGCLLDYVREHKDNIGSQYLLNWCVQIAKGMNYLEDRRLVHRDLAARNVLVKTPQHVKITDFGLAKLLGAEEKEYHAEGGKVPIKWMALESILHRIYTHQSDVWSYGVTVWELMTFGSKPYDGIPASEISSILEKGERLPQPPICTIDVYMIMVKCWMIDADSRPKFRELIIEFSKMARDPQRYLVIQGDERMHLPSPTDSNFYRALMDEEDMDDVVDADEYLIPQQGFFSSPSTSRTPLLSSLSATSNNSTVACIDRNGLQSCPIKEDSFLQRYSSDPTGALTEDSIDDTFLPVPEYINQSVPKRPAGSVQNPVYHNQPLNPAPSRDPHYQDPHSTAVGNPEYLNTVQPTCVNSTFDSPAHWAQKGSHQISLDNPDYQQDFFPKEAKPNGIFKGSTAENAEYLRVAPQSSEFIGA
Procedure: Exon 20-Mutant-EGFR(D770_N771insSVD) Kinase Assay
Inhibitory activity of compounds of the present invention against an Epidermal Growth Factor Receptor (EGFR) with an insertion of the amino acids sequence SVD between D770 and N771 was quantified employing the TR-FRET based kinase activity assay as described in the following paragraphs.
For the assay 50 nl of a 100-fold concentrated solution of the test compound in DMSO was pipetted into either a black low volume 384 well microtiter plate or a black 1536 well microtiter plate (both Greiner Bio-One, Frickenhausen, Germany), 2 μl of a solution of EGFR in aqueous assay buffer [50 mM Hepes pH 7.0, 10 mM MgCl2, 1 mM dithiothreitol, 0.5 mM EGTA, 0.3 mM activated sodium ortho-vanadate, 0.005% (w/v) bovine serum albumin, 0.005% (v/v) Tween-20] were added and the mixture was incubated for 15 min at 22° C. to allow pre binding of the test compounds to the enzyme before the start of the kinase reaction. […] The concentration of EGFR was adjusted depending of the activity of the enzyme lot and was chosen appropriate to have the assay in the linear range, typical concentration was 15 pg/μl. The reaction was stopped by the addition of 3 μl of a solution of HTRF detection reagents (83.3 nM streptavidine-XL665 [Cisbio Bioassays, Codolet, France] and 1.67 nM PT66-Tb-Cryptate, a terbium-cryptate labelled anti-phospho-tyrosine antibody from Cisbio Bioassays [instead of the PT66 Tb cryptate PT66 Eu Chelate from Perkin Elmer can also be used]) in an aqueous EDTA-solution (133.3 mM EDTA, 0.2% (w/v) bovine serum albumin in 50 mM HEPES pH 7.5).
(§2) The resulting mixture was incubated 1 h at 22° C. to allow the binding of the biotinylated phosphorylated peptide to the streptavidine-XL665 and the PT66-Tb-Cryptate. Subsequently the amount of phosphorylated substrate was evaluated by measurement of the resonance energy transfer from the PT66-Tb-Cryptate to the streptavidine-XL665.

Bub1 = Bub1 (Homo sapiens (Human), UniProt O43683); assay: Bub1 kinase assay (TR-FRET, 10 μM ATP); format: biochemical; conditions: mean, read-out: Bub1 kinase assay IC50 [mol/l] (mean)
Bub1, sequence (O43683 704-1085): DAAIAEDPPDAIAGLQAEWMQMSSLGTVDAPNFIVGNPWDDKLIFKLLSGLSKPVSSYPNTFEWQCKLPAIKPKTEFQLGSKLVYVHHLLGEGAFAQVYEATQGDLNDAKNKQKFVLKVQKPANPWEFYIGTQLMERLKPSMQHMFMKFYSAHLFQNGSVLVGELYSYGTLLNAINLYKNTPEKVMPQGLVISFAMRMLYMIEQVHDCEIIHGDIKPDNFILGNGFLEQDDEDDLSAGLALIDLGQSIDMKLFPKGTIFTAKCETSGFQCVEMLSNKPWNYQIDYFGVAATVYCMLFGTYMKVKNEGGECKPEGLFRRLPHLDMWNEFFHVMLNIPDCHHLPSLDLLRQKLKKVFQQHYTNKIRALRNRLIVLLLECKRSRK
Source text: Bub1-inhibitory activities of compounds described in the present invention were quantified using a time-resolved fluorescence energy transfer (TR-FRET) kinase assay which measures phosphorylation of the synthetic peptide Biotin-Ahx-[…]—SEQ ID NO: 5 (C-terminus in amide form), purchased from e.g. Biosyntan (Berlin, Germany) by the (recombinant) catalytic domain of human Bub1 (amino acids 704-1085), expressed in Hi5 insect cells with an N-terminal His6-tag (SEQ ID NO: 9) and purified by affinity-(Ni-NTA) and size exclusion chromatography.
In a typical assay 11 different concentrations of each compound (0.1 nM, 0.33 nM, 1.1 nM, 3.8 nM, 13 nM, 44 nM, 0.15 μM, 0.51 μM, 1.7 μM, 5.9 μM and 20 μM) were tested in duplicate within the same microtiter plate. To this end, 100-fold concentrated compound solutions (in DMSO) were previously prepared by serial dilution (1:3.4) of 2 mM stocks in a clear low volume 384-well source microtiter plate (Greiner Bio-One, Frickenhausen, Germany), from which 50 nl of compounds were transferred into a black low volume test microtiter plate from the same supplier. […] The resulting mixture (5 μl final volume) was incubated at 22° C. during 60 min., and the reaction was stopped by the addition of 5 μl of an aqueous EDTA-solution (50 mM EDTA, in 100 mM HEPES pH 7.5 and 0.2% (w/v) bovine serum albumin) which also contained the TR-FRET detection reagents (0.2 μM streptavidin-XL665 [Cisbio Bioassays, Codolet, France] and 1 nM anti-phosho-Serine antibody [Merck Millipore, cat. #35-002] and 0.4 nM LANCE EU-W1024 labeled anti-mouse IgG antibody [Perkin-Elmer, product no. AD0077, alternatively a Terbium-cryptate-labeled anti-mouse IgG antibody from Cisbio Bioassays can be used]). The stopped reaction mixture was further incubated 1 h at 22° C. in order to allow the formation of complexes between peptides and detection reagents. Subsequently, the amount of product was evaluated by measurement of the resonance energy transfer from the Eu-chelate-antibody complex recognizing the Phosphoserine residue to the streptavidin-XL665 bound to the biotin moiety of the peptide. To this end, the fluorescence emissions at 620 nm and 665 nm after excitation at 330-350 nm were measured in a TR-FRET plate reader, e.g. a Rubystar or Pherastar (both from BMG Labtechnologies, Offenburg, Germany) or a Viewlux (Perkin-Elmer) and the ratio of the emissions (665 nm/[…]) was taken as indicator for the amount of phosphorylated substrate. The data were normalised using two sets of control wells for high-(=enzyme reaction without inhibitor=0%=Minimum inhibition) and low-(=all assay components without enzyme=100%=Maximum inhibition) Bub1 activity. IC50 values were calculated by fitting the normalized inhibition data to a 4-parameter logistic equation (Minimum, Maximum, IC50, Hill; Y=Max+(Min−Max)/(1+(X/IC50)Hill)).

Ba/F3-EGFR-WT cells = assay: Proliferation assay in BA/F3 (wild type) cells (Cell Titer-Glo); format: cell-based
How it was run: (§1)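 Ba/F3 cells stably expressing retrovirally transduced EGFR-WT or EGFR-insSVD; WT cells plated with 10 ng/mL EGF, insSVD cells without EGF. Compound exposure 48 h at 37° C; viability read by CellTiter-Glo luminescence.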

[2] = target: EGFR ins ASV (insertion of ASV between V769 and D770); assay: Exon 20-Mutant-EGFR(V769_D770insASV) kinase assay (TR-FRET); format: biochemical, human; conditions: 2 mM ATP
Procedure: Exon 20-Mutant-EGFR(V769_D770insASV) Kinase Assay
Inhibitory activity of compounds of the present invention against an Epidermal Growth Factor Receptor (EGFR) with an insertion of the amino acids sequence ASV between V769 and D770 was quantified employing the TR-FRET based kinase activity assay as described in the following paragraphs.
For the assay 50 nl of a 100-fold concentrated solution of the test compound in DMSO was pipetted into either a black low volume 384well microtiter plate or a black 1536 well microtiter plate (both Greiner Bio-One, Frickenhausen, Germany), 2 μl of a solution of EGFR in aqueous assay buffer [50 mM Hepes pH 7.0, 10 mM MgCl2, 1 mM dithiothreitol, 0.5 mM EGTA, 0.3 mM activated sodium ortho-vanadate, 0.005% (w/v) bovine serum albumin, 0.005% (v/v) Tween-20] were added and the mixture was incubated for 15 min at 22° C. to allow pre binding of the test compounds to the enzyme before the start of the kinase reaction. […] The concentration of EGFR was adjusted depending of the activity of the enzyme lot and was chosen appropriate to have the assay in the linear range, typical concentration was 2.5 pg/μl. The reaction was stopped by the addition of 3 μl of a solution of HTRF detection reagents (83.3 nM streptavidine-XL665 [Cisbio Bioassays, Codolet, France] and 1.67 nM PT66-Tb-Cryptate, an terbium-cryptate labelled anti-phospho-tyrosine antibody from Cisbio Bioassays [instead of the PT66 Tb cryptate PT66 Eu Chelate from Perkin Elmer can also be used]) in an aqueous EDTA-solution (133.3 mM EDTA, 0.2% (w/v) bovine serum albumin in 50 mM HEPES pH 7.5).
as §2

Ba/F3-EGFR-insSVD cells = assay: Proliferation assay in BA/F3 (ins SVD) cells (Cell Titer-Glo); format: cell-based
How it was run: as §1

[3] = 2 mM ATP, mean, read-out: EGFR ins SVD IC50 [mol/l] (mean)
[4] = Table 9, read-out: mutEGFR (D770_N771insSVD) kinase assay IC50
[5] = Table 10, plated without EGF, 48 h
[6] = Mus musculus, BaF3, 48 h, Table 10, plated with 10 ng/mL EGF
[7] = Mus musculus, BaF3, 48 h, Table 10, plated without EGF
[8] = Mus musculus, BaF3, Table 10, plated with 10 ng/mL EGF, 48 h
[9] = Mus musculus, BaF3, Table 10, plated without EGF, 48 h

Structure (SMILES)	IC50 [1, 3] [nM]	IC50 [1, 4]	IC50 (Bub1) [nM]	IC50 (Ba/F3-EGFR-WT cells; Table 10, plated with 10 ng/mL EGF, 48 h) [nM]	EGFR ins ASV IC50 [mol] (mean) [2]	IC50 (Ba/F3-EGFR-insSVD cells; [5])	IC50 (Ba/F3-EGFR-WT cells; [6]) [nM]	IC50 (Ba/F3-EGFR-insSVD cells; [7]) [nM]	IC50 (Ba/F3-EGFR-WT cells; [8]) [nM]	IC50 (Ba/F3-EGFR-insSVD cells; [9]) [nM]
COC(C)(C)COc1cnccc1-c1[nH]c2c(c1Nc1cccc(F)c1OC(F)F)C(=O)NCC2 [Example 19, 3-{[2-(difluoromethoxy)-3-fluorophenyl]amino}-2-[3-(2-methoxy-2-methylpropoxy)pyridin-4-yl]-1,5,6,7-tetrahydro-4H-pyrrolo[3,2-c]pyridin-4-one]	0.155	0.148 nM	149	870	2.39e-10	40.1 nM				
CCOc1c(F)cccc1Nc1c(-c2ccncc2OCCOC)[nH]c2c1C(=O)NCC2 [Example 25, 3-[(2-ethoxy-3-fluorophenyl)amino]-2-[3-(2-methoxyethoxy)pyridin-4-yl]-1,5,6,7-tetrahydro-4H-pyrrolo[3,2-c]pyridin-4-one]			228				2280			
COCCOc1cnccc1-c1[nH]c2c(c1Nc1cc(F)cc(F)c1)C(=O)NCC2 [Example 9, 3-[(3,5-difluorophenyl)amino]-2-[3-(2-methoxyethoxy)pyridin-4-yl]-1,5,6,7-tetrahydro-4H-pyrrolo[3,2-c]pyridin-4-one]	< 0.072	0.36 nM and 0.388 nM and 0.0776 nM and < 0.0725 nM and 0.1 nM and 0.0962 nM and 0.196 nM and 0.206 nM	27.2		6.15e-09		376	121		
COc1c(Nc2c(-c3ccncc3OCC(C)(C)OC)[nH]c3c2C(=O)NCC3)ccc(F)c1F [Example 29, 3-[(3,4-difluoro-2-methoxyphenyl)amino]-2-[3-(2-methoxy-2-methylpropoxy)pyridin-4-yl]-1,5,6,7-tetrahydro-4H-pyrrolo[3,2-c]pyridin-4-one]			201				2360	229		
CC(C)(COc1cnccc1-c1[nH]c2c(c1Nc1cccc(F)c1)C(=O)NCC2)N1CCOCC1 [Example 7, 3-[(3-fluorophenyl)amino]-2-{3-[2-methyl-2-(morpholin-4-yl)propoxy]pyridin-4-yl}-1,5,6,7-tetrahydro-4H-pyrrolo[3,2-c]pyridin-4-one]	0.718	1.13 nM	397						2700	462
COC(C)(C)COc1cnccc1-c1[nH]c2c(c1Nc1cccc(F)c1)C(=O)NCC2 [Example 6, 3-[(3-fluorophenyl)amino]-2-[3-(2-methoxy-2-methylpropoxy)pyridin-4-yl]-1,5,6,7-tetrahydro-4H-pyrrolo[3,2-c]pyridin-4-one]	< 0.072	< 0.0725 nM (2×) and 0.104 nM and 0.0949 nM	26.9		2.12e-10		394	63.3		
COCCOc1cnccc1-c1[nH]c2c(c1Nc1cccc(F)c1CC(F)F)C(=O)NCC2 [Example 22, 3-{[2-(2,2-difluoroethyl)-3-fluorophenyl]amino}-2-[3-(2-methoxyethoxy)pyridin-4-yl]-1,5,6,7-tetrahydro-4H-pyrrolo[3,2-c]pyridin-4-one]			111				1560	116		
COc1c(F)cccc1Nc1c(-c2ccncc2OCC(C)(C)OC)[nH]c2c1C(=O)NCC2 [Example 17, 3-[(3-fluoro-2-methoxyphenyl)amino]-2-[3-(2-methoxy-2-methylpropoxy)pyridin-4-yl]-1,5,6,7-tetrahydro-4H-pyrrolo[3,2-c]pyridin-4-one]	0.113	0.113 nM	55.1		1.77e-10		397	11.9		
CC(C)(C)CCOc1cnccc1-c1[nH]c2c(c1Nc1cccc(F)c1)C(=O)NCC2 [Example 2, 2-[3-(3,3-dimethylbutoxy)pyridin-4-yl]-3-[(3-fluorophenyl)amino]-1,5,6,7-tetrahydro-4H-pyrrolo[3,2-c]pyridin-4-one]			44.1			7.49 nM and 8.81 nM and 7.48 nM and < 4.78 nM	1870	6.8		
COCCOc1cnccc1-c1[nH]c2c(c1Nc1ccccc1OC(F)(F)F)C(=O)NCC2 [Example 14, 2-[3-(2-methoxyethoxy)pyridin-4-yl]-3-{[2-(trifluoromethoxy)phenyl]amino}-1,5,6,7-tetrahydro-4H-pyrrolo[3,2-c]pyridin-4-one]			704				2530	1040		
CN(C)CCOc1cnccc1-c1[nH]c2c(c1Nc1cccc(F)c1)C(=O)NCC2 [Example 5, 2-{3-[2-(dimethylamino)ethoxy]pyridin-4-yl}-3-[(3-fluorophenyl)amino]-1,5,6,7-tetrahydro-4H-pyrrolo[3,2-c]pyridin-4-one]	1.56	1.56 nM	32.4		4.31e-09			567		
COCCOc1cnccc1-c1[nH]c2c(c1Nc1cccc(F)c1Br)C(=O)NCC2 [Example 12, 3-[(2-bromo-3-fluorophenyl)amino]-2-[3-(2-methoxyethoxy)pyridin-4-yl]-1,5,6,7-tetrahydro-4H-pyrrolo[3,2-c]pyridin-4-one]	0.0857	0.0857 nM			2.18e-10					
COCCOc1cnccc1-c1[nH]c2c(c1Nc1cccc(F)c1OC(F)F)C(=O)NCC2 [Example 18, 3-{[2-(difluoromethoxy)-3-fluorophenyl]amino}-2-[3-(2-methoxyethoxy)pyridin-4-yl]-1,5,6,7-tetrahydro-4H-pyrrolo[3,2-c]pyridin-4-one]			375							
COC(C)(C)COc1cnccc1-c1[nH]c2c(c1Nc1cccc(F)c1O)C(=O)NCC2 [Example 24, 3-[(3-fluoro-2-hydroxyphenyl)amino]-2-[3-(2-methoxy-2-methylpropoxy)pyridin-4-yl]-1,5,6,7-tetrahydro-4H-pyrrolo[3,2-c]pyridin-4-one]	0.541	0.541 nM			6.34e-10					
COC(C)(C)COc1cnccc1-c1[nH]c2c(c1Nc1cc(F)cc(F)c1)C(=O)NCC2 [Example 10, 3-[(3,5-difluorophenyl)amino]-2-[3-(2-methoxy-2-methylpropoxy)pyridin-4-yl]-1,5,6,7-tetrahydro-4H-pyrrolo[3,2-c]pyridin-4-one]	< 0.072	< 0.0725 nM (4×) and 0.133 nM	12.4				352	56.9		
COCCOc1cnccc1-c1[nH]c2c(c1Nc1ccccc1)C(=O)NCC2 [Example 1, 2-[3-(2-methoxyethoxy)pyridin-4-yl]-3-(phenylamino)-1,5,6,7-tetrahydro-4H-pyrrolo[3,2-c]pyridin-4-one]			14.5							
CN1CCC[C@H]1COc1cnccc1-c1[nH]c2c(c1Nc1cccc(F)c1)C(=O)NCC2 [Example 8, 3-[(3-fluorophenyl)amino]-2-(3-{[(2S)-1-methylpyrrolidin-2-yl]methoxy}pyridin-4-yl)-1,5,6,7-tetrahydro-4H-pyrrolo[3,2-c]pyridin-4-one]	0.31	0.324 nM	65.8						623	69.5
COCCOc1cnccc1-c1[nH]c2c(c1Nc1cccc(F)c1OC)C(=O)NCC2 [Example 16, 3-[(3-fluoro-2-methoxyphenyl)amino]-2-[3-(2-methoxyethoxy)pyridin-4-yl]-1,5,6,7-tetrahydro-4H-pyrrolo[3,2-c]pyridin-4-one]			145				454	24.1		
